Laboratory results as given in patent US20100074939A1 (OsteoGeneX Inc., priority 2008, published 2010).
Counter-ions that a name gives are not always drawn.

Tests used:
mouse = experiment: Bone formation in treated vs control mice by micro-CT (Example 1); format: in vivo; conditions: test vs control solution, after complete dosing schedule
Excerpt: Compounds useful in the methods of the present invention can be identified via a variety of methods known to one of skill in the art. Several exemplary methods for identifying such antagonists are described herein, including cell-based and in vitro techniques (Journal of Bone and Mineral Research 2006, 21(11), 1738-1749). A general method of identifying SOST antagonists involves evaluating the effects of antagonist candidates on bone formation under controlled conditions. Preferably bone formation is determined using micro-CT techniques on live animals. Preferred animals include rodents, more preferred are primates. Femur, tibia and vertebrae bones are particularly useful subjects for such study.
Briefly, the test animal is treated with a predetermined dose of a SOST antagonist candidate. […]
Once the dosing schedule has been completed, both test and control animals are examined to determine the quantity of bone formation present. […] Where necessary, levels of bone formation can be calculated by determining the volume of bone formation present in each animal. […]
For example, the mouse test animal is treated with a predetermined dose of a SOST antagonist candidate for a complete dosing schedule. […] Once the dosing schedule has been completed, both test and control animals are examined with sacrifice using micro-CT to determine the quantity of bone formation present.

Wnt pathway = Wnt pathway modulation to promote bone growth (FIG. 1); conditions: doses of 2.5 ng (low), 60 ng (medium), 125 ng (high)
Experimental: For example, the mouse test animal is treated with a predetermined dose of a SOST antagonist candidate for a complete dosing schedule. A control mouse is treated with a control solution, preferably a non-irritating buffer solution or other carrier. Once the dosing schedule has been completed, both test and control animals are examined with sacrifice using micro-CT to determine the quantity of bone formation present.

C57BL/6 mice [1] = experiment: Femur bone density/volume by pQCT, 30-day i.p. study (FIG. 2); format: in vivo, mouse; conditions: male C57BL/6 mice, daily i.p. 30 days, 40 mg/kg
Experimental: (§1) Four month old male C57BL/6 mice were treated daily with saline vehicle or the sclerostin inhibitor of harmine hydrochloride at 20 (“L”), 40 (“M”) or 90 (“H”) mg/kg (via i.p) for 30 days. Study endpoints included measurement of femur bone volume by pQCT analysis (FIG. 2), and a biochemical marker of bone formation, osteocalcin, measured by EIA Elisa (FIG. 3). […] Lumbar vertebra L5 bone volume increased 2% over saline baseline, as measured by uCT, and 73%, as measured by DEXA Piximus.

C57BL/6 mice [2] = experiment: Serum osteocalcin bone formation marker by EIA Elisa, 30-day i.p. study (FIG. 3); format: in vivo, mouse; conditions: male C57BL/6 mice, 40 mg/kg daily i.p. 30 days
Experimental: as §1

C57BL/6 mice [3] = experiment: Lumbar vertebra L5 bone volume by uCT, 30-day i.p. study; format: in vivo, mouse; conditions: measured by uCT; male C57BL/6 mice, daily i.p. 30 days; dose not stated
Experimental: as §1

C57BL/6 mice [4] = experiment: Lumbar vertebra L5 bone volume by DEXA Piximus, 30-day i.p. study; format: in vivo, mouse; conditions: measured by DEXA Piximus; male C57BL/6 mice, daily i.p. 30 days; dose not stated
Experimental: as §1

COc1ccc2c(c1)[nH]c1c(C)nccc12 [harmine hydrochloride]
bone growth (quantity of bone formation by micro-CT) (mouse): promoting bone growth | modulation of the Wnt pathway to promote bone growth (Wnt pathway): modulating the Wnt pathway to promote bone growth | increase over baseline for femur bone density (C57BL/6 mice [1]): 13% | percent increase in serum osteocalcin bone formation marker over saline controls (C57BL/6 mice [2]): 65% | Lumbar vertebra L5 bone volume increase over saline baseline (C57BL/6 mice [3]): 2% | Lumbar vertebra L5 bone volume increase over saline baseline (C57BL/6 mice [4]): 73%
